Results published in PubChem BioAssay AID602459 (Sanford-Burnham Center for Chemical Genomics, 2012).

Target: Neurotensin receptor type 1 (Homo sapiens) (UniProt P30989)
Experiment: NTR1 agonist-evoked calcium mobilization, SAR follow-up, cell-based, fluorescence, calcium flux, dose response (AID 602459)
Settings: NTR1-expressing cells, agonist mode; call rule not given here

Sequence of Neurotensin receptor type 1 (Homo sapiens) (P30989 whole entry, looked up): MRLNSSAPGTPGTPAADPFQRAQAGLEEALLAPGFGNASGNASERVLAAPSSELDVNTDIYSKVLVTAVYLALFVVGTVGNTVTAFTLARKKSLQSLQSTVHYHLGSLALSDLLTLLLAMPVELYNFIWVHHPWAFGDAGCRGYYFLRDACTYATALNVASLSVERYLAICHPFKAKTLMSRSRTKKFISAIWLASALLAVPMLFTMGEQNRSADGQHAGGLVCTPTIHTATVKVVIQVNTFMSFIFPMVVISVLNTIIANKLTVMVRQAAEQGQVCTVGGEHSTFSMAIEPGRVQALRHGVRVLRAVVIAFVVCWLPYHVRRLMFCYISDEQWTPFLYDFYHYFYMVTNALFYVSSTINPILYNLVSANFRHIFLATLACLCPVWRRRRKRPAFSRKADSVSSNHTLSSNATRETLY

EC50, active:
COc1cccc(OC)c1-c1nc(C(=O)N[C@@H](CC(C)C)C(=O)O)cn1-c1ccnc2cc(Cl)ccc12 298 nM
COc1cccc(OC)c1-c1cc(C(=O)N[C@@H](CC(C)C)C(=O)O)nn1-c1ccnc2cc(Cl)ccc12 < 156 nM
COc1cc2c3nnc(-c4ccc(F)cc4)c-3cn(Cc3cccc(C)c3)c2cc1OC 1500 nM
